Measurements reported in US20240287074A1, “SALTS AND CRYSTALS” (Kinoxis Therapeutics Pty Ltd, priority 2020, published 2024).
Counter-ions that a name gives are not always drawn. Marks after values point to notes of the source that are not given here.

Tests used:
[1] = Oral pharmacokinetics in rats; format: in vivo; settings: male Sprague Dawley rats; for Plasma AUC0-inf/Dose / Plasma Cmax/Dose: dose-normalised; for Plasma AUC0-inf/Dose / Plasma Cmax/Dose / % Dose in urine: listed as Phosphate salt; for Apparent t1/2 / BA % / Plasma AUC0-inf / Plasma Cmax / Tmax / % Dose in urine: 5 mg/kg target dose (freebase equivalent), 5 mg/kg; for Apparent t1/2 / BA % / Plasma AUC0-inf / Plasma Cmax / Tmax: mean ± SD, n = 3, listed as Phosphate salt; for % Dose in urine: urine up to 24 h
Procedure: N=3 rats were run in each of the four conditions: • (1) Di-HCL salt in saline • (2) Di-HCL salt in methocel • (3) Phosphate form 1 in saline • (4) Phosphate form 1 in methocel
On the day of dosing the solid compounds were dissolved in either Saline (0.9%) or 0.5% hydroxypropyl methylcellulose (Methocel E3 Premium LV) in Milli-Q water. The formulations were then thoroughly vortexed to produce colourless solutions.
Overnight-fasted rats with adlibitum access to water were administered their dose of the various forms of the compound of the invention via oral gavage (PO) at a dose volume of 3 ml/kg and a dose of 5 mg/kg freebase equivalent. Food access was re-instated 4 hours (h) post-dose. Samples of arterial blood were collected up to 24 h post-dose. After collection, samples were centrifuged, plasma was removed and stored frozen at −80° C. before being analysed by LC-MS. Urine samples were collected at pre, 0-4 h, 4-7 h and 7-24 h post-dose and were analysed by LC-MS following extraction.

[2] = tested on: C57BL/6 mouse model of opioid withdrawal; experiment: Naloxone precipitated oxycodone withdrawal-induced jumping; format: in vivo; settings: 7.3 mg/kg FBE i.p., C57BL/6 mice, 30 min session, vs OXY_VEH
Procedure: Two cohorts of adult male C57BL/6 mice were run assessing the effects of 7.3 mg/kg freebase equivalent (FBE) IP of the compound of the invention in the dihydrochloride salt form (CMPD1-2HCL) and the phosphate form 1 (CMPD1-PO4) on naloxone precipitated withdrawal-induced jumping.
The first cohort of mice (N=30) were split into the following conditions: • (1) Vehicle, 0 mg/kg (n=10); • (2) oxycodone, 0 mg/kg compound of the invention FBE in 2HCL salt form (n=10); • (3) oxycodone, 7.3 mg/kg compound of the invention FBE in 2HCL salt form (n=10).
The second cohort of mice (N=24) were split into the following conditions: • (1) Vehicle, 0 mg/kg (n=8); • (2) oxycodone, 0 mg/kg compound of the invention FBE in PO4 salt form (n=8); • (3) oxycodone, 7.3 mg/kg compound of the invention FBE in PO4 salt form (n=8).
Mice in the oxycodone conditions received i.p. injections of oxycodone for 5 days according to the schedule and doses set out in Table 8. The morning and afternoon doses were separated by 7 h. Mice in the vehicle condition received injections of vehicle saline instead of oxycodone. […]
Testing involved placing mice individually into a 20 (I)×20 (w)×30 (h) cm arena for 30 min. […] Number of jumps were scored from the videos by an experienced experimenter blind to conditions.
Data were analysed by SPSS using oneway ANOVA and planned contrasts.

Compound: Cn1ncc2c1Nc1ccccc1NC2 [Phosphate form 1, phosphoric acid addition salt of 1-methyl-1,4,5,10-tetrahydropyrazolo[3,4-b][1,5]benzodiazepine]
- Plasma AUC0-inf/Dose ([1]; Methocel): 0.85 ± 0.18 (μg*h/mL)/(mg/kg)
- Plasma Cmax/Dose ([1]; Methocel): 0.41 ± 0.05 (μg/mL)/(mg/kg)
- Plasma AUC0-inf/Dose ([1]; Saline): 1.02 ± 0.36 (μg*h/mL)/(mg/kg)
- Plasma Cmax/Dose ([1]; Saline): 0.43 ± 0.03 (μg/mL)/(mg/kg)
- Apparent t1/2 ([1]; Methocel): 36 ± 1.2 min
- BA % ([1]; Methocel): 93.2 ± 20^b %
- Plasma AUC0-inf ([1]; Methocel): 4160 ± 880 ng·h/mL
- Plasma Cmax ([1]; Methocel): 2010 ± 250 ng/mL
- Tmax ([1]; Methocel): 15 ± 0 min
- % Dose in urine ([1]; Methocel): 0.222 ± 0.093%
- Apparent t1/2 ([1]; Saline): 48.6 ± 12 min
- BA % ([1]; Saline): 111 ± 40^b %
- Plasma AUC0-inf ([1]; Saline): 4950 ± 1750 ng·h/mL
- Plasma Cmax ([1]; Saline): 2090 ± 140 ng/mL
- Tmax ([1]; Saline): 30 ± 24 min
- % Dose in urine ([1]; Saline): 0.395^d %
- exposure profile compared with dihydrochloride salt form ([1]; saline or methocel vehicle): same exposure profile
- oxycodone withdrawal-induced jumping [2]: significantly inhibited
